Each structure is given as a SMILES string. Values after ≈ are worked out from the molar mass of the structure shown. Where two headings read alike, the source gives them in different places.

What all share (type): cell-based
For assay [1], the system named is Methicillin Resistant Staphylococcus aureus strain USA 300, NRS384. The assay can be described thus: Minimum inhibitory concentration, broth micro-dilution (CLSI), S. aureus. The following applies: Staphylococcus aureus, MRSA / NRS 384 / USA300, 22 h. On the procedure:
(§1) In vitro antimicrobial activity of each compound was determined by measuring minimal inhibitor concentrations (MICs) using the broth micro-dilution technique as approved by the Clinical and Laboratory Standards Institute (CLSI) (Methods for Dilution Antimicrobial Susceptibility Tests for Bacteria that Grow Aerobically; Approved Standard—Eighth Edition. CLSI document M07-A8. Wayne, Pa.: Clinical and Laboratory Standards; 2009). Antibacterial activity was measure against three strains of bacteria: a Methicillin Resistant Staphylococcus aureus strain USA 300, NRS384 (S. aureus); a strain of Escherichia coli MC4100 harboring the IMP4213 (E. coli IMP), which results in increased outer-membrane permeability (B Martin and Silhavy T. Imp/OstA is required for cell envelope biogenesis in Escherichia coli. (2002) Molecular Microbiology, 45(5), 1289-1302), and Escherichia coli ATCC 25922 (E. coli), a clinically relevant Gram-negative strain. Cells were inoculated onto plates of Trypyticase Soy Agar or Luria Agar respectively and grown at 35° C. for 20 hours. Inocula suspensions were prepared by scraping cells into 1 mL of testing media (cation adjusted Mueller Hinton Broth supplemented with 0.002% v/v Tween-80) and diluting to a final OD600 nm of 0.01.
(§2) Test compounds were prepared in DMSO at a concentration of 10 mg/mL. […] In protocol 2, the compound stocks were diluted into testing media at a concentration of 4 μg/mL and serial 2-fold dilutions were made in the same media, in 96-well U bottom microtiter dishes, for a total of 10 compound concentrations. In protocol 3, compound stocks were diluted into testing media at a concentration of 0.5 μg/mL, with serial 2-fold dilutions conducted as described above. […] Inocula suspensions were added to the 2-fold serial dilutions of test compounds to a final density of OD OD600 nm of 0.0005 and incubated at 35° C. for 22 hours.
Background: In broth dilution the organism is exposed to a series of concentrations in liquid medium.

Assay [2] concerns Escherichia coli MC4100 harboring the IMP4213 (E. coli IMP). Nature of the assay: microbe, parasite or virus in culture. The following applies: Escherichia coli, 22 h. On the procedure:
as §1, §2

Assay [3] deals with Escherichia coli ATCC 25922. Nature of the assay: Minimum inhibitory concentration, broth micro-dilution (CLSI), E. coli. The settings on record: Escherichia coli, ATCC25922, 22 h. On the procedure: Cells were inoculated onto plates of Trypyticase Soy Agar or Luria Agar respectively and grown at 35° C. for 20 hours. Inocula suspensions were prepared by scraping cells into 1 mL of testing media (cation adjusted Mueller Hinton Broth supplemented with 0.002% v/v Tween-80) and diluting to a final OD600 nm of 0.01.
as §2

[4] abbreviates: read-out: MIC (μg/mL) S. aureus, MRSA USA 300 NRS384, 35° C., 22 hours.
[5] abbreviates: read-out: MIC (μg/mL) E. coli IMP, E. coli MC4100 IMP4213, increased outer-membrane permeability, 35° C., 22 hours.
Setting [6] is: read-out: MIC (μg/mL) E. coli, E. coli ATCC 25922, 35° C., 22 hours.
Setting [7] is: MRSA USA 300 NRS384, 35° C., 22 hours, read-out: MIC (μg/mL) S. aureus.
[8] abbreviates: E. coli ATCC 25922, 35° C., 22 hours, read-out: MIC (μg/mL) E. coli.

For `Cc1cc(C(C)C)ccc1C(=O)N[C@@H](CCN)C(=O)N(C)[C@@H]1C(=O)N[C@@H](C)C(=O)N[C@H](C(=O)NCC#N)Cc2ccc(OCCN)c(c2)-c2cc1ccc2OCCN` [Compound 433], the MIC in assay [1] (setting [4]) came out at 0.5 µg/mL (≈ 0.627 µM); in assay [2] (setting [5]), 0.094 µg/mL (≈ 0.118 µM); in assay [3] (setting [6]), 4 µg/mL (≈ 5.01 µM).
Turning to `CCCCCCc1ccc(C(=O)N[C@@H](CCN)CC(=O)N(C)[C@@H]2C(=O)N[C@@H](C)C(=O)N[C@H](C(=O)NCC#N)Cc3ccc(OCCN)c(c3)-c3cc2ccc3OCCN)c(C)c1` [Compound 513], the figures for the MIC in assay [1] (setting [7]), in assay [2] (setting [5]) and in assay [3] (setting [8]) were 0.19 µg/mL (≈ 0.222 µM), 0.13 µg/mL (≈ 0.152 µM) and 16 µg/mL (≈ 18.7 µM), respectively.
The like results for `CCCCc1cccc(C(=O)N[C@@H](CCCN)C(=O)N(C)[C@@H]2C(=O)N[C@@H](C)C(=O)N[C@H](C(=O)NCC#N)Cc3ccc(OCCN)c(c3)-c3cc2ccc3OCCN)c1C` [Compound 206] were, in that order, 0.38 µg/mL (≈ 0.46 µM), 0.094 µg/mL (≈ 0.114 µM) and 16 µg/mL (≈ 19.4 µM).
With `CCCCCCCc1ccc(C(=O)N[C@@H](CCN)C(=O)N(C)[C@@H]2C(=O)N[C@@H](C)C(=O)N[C@H](C(=O)NCC#N)Cc3ccc(OCCNC(=O)CN)c(c3)-c3cc2ccc3OCCNC(=O)CN)c(C)c1` [Compound 499], the MIC was determined as 0.063 µg/mL (≈ 0.0651 µM) in assay [1] (setting [7]), 0.023 µg/mL (≈ 0.0238 µM) in assay [2] (setting [5]) and 0.5 µg/mL (≈ 0.516 µM) in assay [3] (setting [8]).
The like results for `Cc1cc(-n2cc(C#CC(C)C)cn2)ccc1C(=O)N[C@@H](CCN)C(=O)N(C)[C@@H]1C(=O)N[C@@H](C)C(=O)N[C@H](C(=O)NCC#N)Cc2ccc(OCCN)c(c2)-c2cc1ccc2OCCN` [Compound 446] were, in that order, 0.063 µg/mL (≈ 0.0709 µM), 0.012 µg/mL (≈ 0.0135 µM) and 0.5 µg/mL (≈ 0.563 µM).
The like results for `CCCCCCCCc1ccc(C(=O)N[C@@H](CCN)C(=O)N(C)[C@@H]2C(=O)N[C@@H](C)C(=O)N[C@H](C(=O)NCC#N)Cc3ccc(OCCN)c(c3)-c3cc2ccc3OCCN)c(CCC(N)=O)c1` [Compound 451] were, in that order, 0.023 µg/mL (≈ 0.0249 µM), 0.016 µg/mL (≈ 0.0173 µM) and 2 µg/mL (≈ 2.16 µM).
Consider `Cc1nc(-c2ccc(C(C)(C)C)cc2)ncc1C(=O)N[C@@H](CCCN)C(=O)N(C)[C@@H]1C(=O)N[C@@H](C)C(=O)N[C@H](C(=O)NCC#N)Cc2ccc(OCCN)c(c2)-c2cc1ccc2OCCN` [Compound 153], for which the MIC in assay [1] (read-out: MIC (μg/mL) S. aureus) was found to be 0.023 µg/mL (≈ 0.0254 µM); in assay [2] (read-out: MIC (μg/mL) E. coli IMP) it was 0.0059 µg/mL (≈ 0.00653 µM); in assay [3] (read-out: MIC (μg/mL) E. coli) it was 0.19 µg/mL (≈ 0.21 µM).
In the case of `CCCCCCCCCCNCC(CO)C(=O)N(C)[C@@H]1C(=O)N[C@@H](C)C(=O)N[C@H](C(=O)NCC#N)Cc2ccc(OCCN)c(c2)-c2cc1ccc2OCCN` (stereo partly drawn) [Compound 525], the results for the MIC in assay [1] (setting [7]), in assay [2] (setting [5]) and in assay [3] (setting [8]) were 1.5 µg/mL (≈ 1.93 µM), over 4 µg/mL and over 64 µg/mL, respectively.
With `Cc1nc(C#CC2CCCCC2)ncc1C(=O)N[C@@H](CCN)C(=O)N(C)[C@@H]1C(=O)N[C@@H](C)C(=O)N[C@H](C(=O)NCC#N)Cc2ccc(OCCN)c(c2)-c2cc1ccc2OCCN` [Compound 312], the MIC came to 0.25 µg/mL (≈ 0.289 µM) in assay [1] (setting [7]), 0.023 µg/mL (≈ 0.0266 µM) in assay [2] (setting [5]) and 0.5 µg/mL (≈ 0.579 µM) in assay [3] (setting [8]).
In the case of `CCCCCCCCCC(=O)N(C)[C@@H](CO)C(=O)N[C@@H](CCN)C(=O)N(C)[C@@H]1C(=O)N[C@@H](C)C(=O)N[C@H](C(=O)NCC#N)Cc2ccc(OCCN)c(c2)-c2cc1ccc2OCCN` [Compound 388], the MIC in assay [1] (setting [4]) was determined as 0.25 µg/mL (≈ 0.28 µM); in assay [2] (setting [5]), 0.25 µg/mL (≈ 0.28 µM); in assay [3] (setting [6]), 48 µg/mL (≈ 53.7 µM).
`CCc1ccc(-c2ccc(C(=O)N[C@@H](CCCN)C(=O)N(C)[C@@H]3C(=O)N[C@@H](C)C(=O)N[C@H](C(=O)NCC#N)Cc4ccc(OCCN)c(c4)-c4cc3ccc4OCCN)c(C)c2)cc1` [Compound 152]: the results for the MIC in assay [1] (setting [7]), in assay [2] (setting [5]) and in assay [3] (setting [8]) were 0.031 µg/mL (≈ 0.0355 µM), 0.014 µg/mL (≈ 0.016 µM) and 0.63 µg/mL (≈ 0.721 µM), respectively.
The like results for `CCCCCCCn1cc(C(=O)N[C@@H](CCN)C(=O)N(C)[C@@H]2C(=O)N[C@@H](C)C(=O)N[C@H](C(=O)NCC#N)Cc3ccc(OCCN)c(c3)-c3cc2ccc3OCCN)c(C)nc1=O` [Compound 301] were, in that order, 4 µg/mL (≈ 4.59 µM), 4 µg/mL (≈ 4.59 µM) and over 64 µg/mL.

For the origin of these results see patent publication US20180327367A1, “MACROCYCLIC BROAD SPECTRUM ANTIBIOTICS” (priority 2015, published 2018).
